Usually solubility stands for how much of the substance goes into solution per volume. In general, CC50 refers to the concentration giving 50% cytotoxicity. Read a high CC50 as lower toxicity to the cells.

The values below come from patent US9688653B2, “Ethoxyphenyl thienyl compounds and methods for the treatment of bacterial infections” (Duke University, priority 2013, dated 2017).

Data set [1] can be described thus: Solubility in PBS and in assay media. It is filed as physicochemical. The protocol:
Solubility was measured in phosphate buffered saline (PBS) at room temperature (23° C.). PBS by definition is 137 mM NaCl, 2.7 mM KCl, 10 mM sodium phosphate dibasic, 2 mM potassium phosphate monobasic and a pH of 7.4 (34). […] Solubility was also assessed in primary assay media (Luria-Bertani Broth). […] The solubility in PBS buffer is good, and only slightly less than in assay media, and, in any case, the solubility for the probe is well above its activity in the K1 and T7 assays.

The test system of data set [2] is E. coli strains 536 (K15 serotype), CFT073 (K2 serotype), DS17 (K5 serotype), UTI89 (K1 serotype). Briefly: Visualization of isolated capsule by Alcian blue staining. The conditions noted are these: strains 536, CFT073, DS17, UTI89; DU011 200 μM. It counts as cell-based, Escherichia coli. As to the method: Visualization of capsule using Alcian blue staining. Overnight cultures of clinical E. coli strains were diluted 1:100 in the presence of 1% DMSO or 100 μM DU011. Cultures were grown for ˜6 hrs (OD600=1.2) at 37° C. Samples were centrifuged at 13,200 RPM for 5 min. The medium was removed and the cells were resuspended in 500 μL of Tris-Acetate (pH 5) and shaken for 1 hr at 37° C. Samples were re-centrifuged, and the supernatant was concentrated ˜100 fold in Amicon 3K microconcentrators.
A major consideration was whether the inhibitors of K1 encapsulation were also able to inhibit the production of other important E. coli Group 2 capsule types. […] Capsular material was isolated from strains 536 (K15 serotype), CFT073 (K2 serotype) and DS17 (K5 serotype), and UTI89 (K1 serotype) in the presence and absence of capsule inhibitors. Capsule was isolated from the same amount of bacteria after growth in vehicle or with inhibitor DU011 (200 μM). Isolated material was separated on a polyacrylamide gel and stained with the cationic dye alcian blue.

A short description of the next data set: in vitro. It counts as cell-based. The settings on record: human.
The next data set relates to E. coli UTI89. Briefly: Murine UPEC sepsis model. It counts as in vivo. The protocol:
Murine UPEC sepsis model and treatment with DU011. Groups of five 6-7 week old C57BL/6NCr female mice (purchased from Frederick National Laboratory for Cancer Research) were injected subcutaneously twice daily with 100 μL of 1% DMSO (vehicle control) or DU011 (1 mg/ml) starting 12 hrs prior to the intra peritoneal infection. Weights were recorded twice daily to monitor health of the animals and tolerance to the compound. Mice were challenged by intraperitoneal injection with 10^8 CFU of the indicated E. coli UTI89 in 100 μL of PBS. Briefly, cultures were prepared by diluting overnight cultures (18 hrs) 1:100 into 3 mL of LB supplemented with 1% DMSO final or 100 μM DU011 (1% DMSO final). Shaken cultures were grown at 37° C. for 6 hours to an OD600 of 1.2, and then cells were pelleted and resuspended in 1 mL of PBS. Absorbance was adjusted to OD600 of 0.8 in PBS, and the cultures were then diluted 1:10 in sterile PBS Animals were also given an intraperitoneal dose of 1% DMSO or DU011, in a site different than the administration of bacteria, to ensure sufficient systemic delivery of drug. Animal survival was assessed after 12 hours. Surviving mice were re-dosed according to the treatment groups and continued to be monitored. The experiment was concluded 48 hours post infection. The entire experiment was repeated with similar results.
Throughout each experiment, animals were monitored each 6 hours from the time of infection until conclusion for serious morbidity, including ruffled fur, decreased activity, slowed respirations, and ill appearance. Animals were provided gel packs for easily accessible additional hydration throughout the experiments. When a moribund state was suspected or anticipated by these criteria, animals were immediately euthanized to minimize potential pain and/or suffering. Of the total animals with an outcome categorized as death, the following numbers were euthanized for terminal morbidity prior to septic death (euthanized/total deaths): 3/10, no prior treatment; 3/5 prior chemical treatment of bacteria alone; 0/2 prior chemical treatment of mice alone. Euthanasia for all animals was through complete respiratory cessation using the inhaled anesthetic isoflurane followed by secondary assurance of death using bilateral thoracotomy. All animal experiments were conducted with prior approval from the Institutional Animal Care and Use Committee of Duke University.

A short description of data set [3]: Hepatic microsome stability, human. It is filed as in vitro ADME. The settings on record: 37° C.
Setting [4] is: pre-treatment of bacteria without pretreatment of the mice.

Where “and” joins values, the source holds several entries; their conditions need not be identical. Equal entries are not always repeated. Entries after “also recorded” stand apart in the source; their conditions may differ. Where two headings read alike, the source gives them in different places.

For the compound `CCOc1ccc(-c2cc(NC(=O)c3c(F)cccc3F)c(C(=O)O)s2)cc1` [ML317, 3-(2,6-difluorobenzamido)-5-(4-ethoxyphenyl)thiophene-2-carboxylic acid], the solubility is 68 µg/mL and 169 µM in data set [1] (Luria-Bertani broth (primary assay media), plasma or biological fluid, Luria-Bertani broth, read-out: Assay Media Solubility); 92.6 µg/mL and 230 µM in data set [1] (phosphate buffered saline (PBS), 23 °C, pH 7.4, aqueous buffer, 1x PBS, pH 7.4, room temperature, read-out: Aqueous Solubility). Also, in data set [2], the “Capsular material, Alcian blue stained gel” value is listed as “capsule was reduced in each strain”. In the data set “in vitro”, this compound yielded a CC50 of 26 µM. For the same compound, the Tolerability in mice entry in the data set with E. coli UTI89 (100 μL of 1 mg/ml subcutaneously twice daily, listed as DU011) is listed as “without evident side effects; also recorded: no detectable adverse effects”. In addition, the Body weight result is reported as “ongoing weight loss” in the data set with E. coli UTI89 (setting [4]); “recovery of pre-infection weights” in the data set with E. coli UTI89 (pretreatment of the bacteria and mice with DU011); “stabilization of weights” with E. coli UTI89 (subcutaneous DU011 and untreated UTI89). Further, the Survival with E. coli UTI89 (setting [4]) was determined as 50%; in the data set on E. coli UTI89 (pretreatment of the bacteria and mice with DU011, 10^8 CFU UTI89 intraperitoneal, 48 hrs) it was 100%; in the data set with E. coli UTI89 (subcutaneous DU011 and untreated UTI89, 48 hrs), 80%. The “Hepatic Microsome Stability, % remaining at 1 hr” value in data set [3] is listed as 89.6 % remaining.
